Reference: US20050123536A1, “Treatment of immunological disorders using anti-dc30 antibodies” (priority 2001, published 2005)
Values joined by “and” are separate entries in the source; they are usually repeats but may differ in a detail not shown here. Equal values may be shown once. “Also recorded” adds a separate entry of the source. Blank lines part the entries; values can stand above or below the molecule they belong to.

Experiments:
CD3 (human) = test: cell-based or functional assay
CD30 (human) = CD30 (human) (UniProt P28908); test: cell-based or functional assay
Jurkat T cells [1] = test: Apoptosis by Annexin V binding and permeability to PI; assay type: cell-based, human; details: primary mAb 2 μg/ml, 10-fold excess GAM
Method: FIG. 7. […] Anti-CD30 and anti-CD3 mAbs were used at 2 μg/ml. GAM secondary Ab was used in 10-fold excess to cross-link the primary mAbs. Binding of FITC-conjugated Annexin V enabled the detection of cells undergoing apoptosis. Membrane permeability to PI was used to detect dead cells that had lost membrane integrity. In the figure, Annexin V^−/PI^− events represent live cells (lower left quadrant), Annexin V^+/PI^− events represent apoptotic cells (lower right quadrant), and Annexin V^+/PI^+ events represent dead cells (upper right quadrant). Numbers outside of the density plots denote the percentage of cells present in each of the quadrants.
Primary mAbs were used at a final concentration of 2 μg/ml. A 10-fold excess of GA-M antibody was used to cross-link the primary antibodies. After an incubation of 15 minutes at room temperature, antibody cocktails were added to Jurkat cells. At the times designated in FIG. 7, percentages of apoptotic and dead cells in the cultures were determined by Annexin V binding and permeability to PI using the Annexin V-FITC Apoptosis Detection Kit I (BD PharMingen, San Diego, Calif.) according to the manufacturer's instruction. […]

Jurkat T cells [2] = test: Jurkat T cell proliferation, 3H-TdR incorporation, anti-CD30 mAbs with or without secondary cross-linking Ab; assay type: cell-based, human; details: for inhibition of Jurkat T cell proliferation by immobilized mAb: mAb immobilized onto TC wells, data not shown; for inhibition of thymidine incorporation in Jurkat cells: secondary cross-linking antibody used
Method: FIG. 2. […] Proliferation was assessed by a pulse of tritiated thymidine (^3H-TdR) during the last 4 hours of a 72 hour incubation.
FIG. 3. […] Proliferation was assessed by a pulse of ^3H-TdR during the last 4 hours of a 48-hour incubation.
The effect of signaling through CD30 by anti-CD30 on the proliferation of Jurkat T cells was assessed by tritiated thymidine (^3H-TdR) incorporation assays. Jurkat cells were treated with soluble anti-CD30 in graded doses or anti-CD30 cross-linked by a secondary cross-linking antibody (Ab). […] Final ratios of 1:2.5, 1:5, and 1:10 between the primary mAbs and secondary cross-linking antibodies were used. Antibody cocktails were allowed to incubate at room temperature for 15 minutes. Serial dilutions of these antibody cocktails in culture medium were then prepared to achieve the desired final concentrations. One hundred ill of antibody cocktails were then mixed with 100 μl Jurkat cell suspension containing 5000 cells in 96-well tissue culture (TC) plates. Cells were incubated with the antibody cocktails for 44 hours before a 4-hour pulse with 1 μCi of ^3H-TdR. Cells were then harvested onto filters, and incorporated tritiated thymidine was measured by scintillation counting. Thymidine incorporation values obtained from the treated cells were then compared to the untreated control cultures.

Jurkat T cells [3] = test: Cell cycle disposition, DNA synthesis and DNA fragmentation (apoptosis) by PI and anti-BrdU staining; assay type: cell-based, human; details: for DNA fragmentation in Jurkat cells: mAb cross-linked by goat anti-mouse IgG Fc, after 24 and 48 hours
Method: The relationship between cell cycle status and DNA replication in Jurkat cells treated with cross-linked anti-CD30 in Abs was further investigated. […] The antibody cocktails were allowed to incubate at room temperature for 15 minutes. Serial 1:10 dilutions of these antibody cocktails in culture medium were then prepared. One ml of antibody cocktails was then mixed with 1 ml of Jurkat cell suspension containing 0.25×10^6 cells in 12-well TC plates.
After 24 or 48 hours of incubation, cells were harvested by centrifugation and resuspended in 2 ml of fresh medium equilibrated at 37° C. Bromodeoxyuridine (BrdU) (Sigma, St. Louis, Mo.) was used to label cells that were actively synthesizing DNA. Twenty μl of 1 mM BrdU dissolved in water were added to the cell suspension, and the incubation continued at 37° C. for 15 minutes. Cells were then spun down, washed once with PBS, and resuspended in 0.5 ml of ice-cold PBS. One ml of 100% ethanol at −20° C. was added drop-wise to the cell suspension for cell fixation. After fixation at 4 C for 30 minutes, fixed cells were spun down. The cell pellets were resuspended in 1 ml of 2 M HCl with 0.5% Triton X-100 (Sigma) and incubated for 30 minutes at room temperature before cells were spun down. One ml of 0.1 M Na2B4O7 at pH 8.5 was used to resuspend the cell pellets and to neutralize the acid for 10 minutes at room temperature. Cells were then pelleted by centrifugation and washed once with PBS containing 0.5% Tween 20 (Sigma) and 1% BSA. […] Cells were then washed twice with PBS, 0.5% Tween 20, 1% BSA, and then resuspended in 0.5 ml of PBS containing 5 μg/ml of propidium iodide (PI) (Sigma) to quantify DNA contents in cells. […]
Jurkat T cells were treated with either anti-CD30 mAb alone, anti-CD3 mAb, alone, or a combination of anti-CD30 and anti-CD3 mAbs. […] Cell cycle distribution was determined by BrdU and PI staining as in FIG. 4.

[4] = system: T lymphocyte clones 40E10 and 40H7; test: Apoptosis induction in T cell clones by Annexin V binding and permeability to PI; assay type: cell-based, human; details: 1 μg/ml of ADC, 4S-hour incubation
Method: FIG. 21. […] After 48 hr of incubation, Annexin V binding and permeability of PI were used to assess the extent of apoptosis induction.

Jurkat T cells [5] = test: Growth inhibition of Jurkat T cells by ADC, 3H-TdR pulse; assay type: cell-based, human; details: 80 hours incubation + 16 hour 3H-TdR pulse
Method: FIG. 9. […] Cells were exposed to the ADCs continuously for a total of 96 hr. Proliferation was assessed by a pulse of H-TdR during the last 16 hours of incubation.
Five thousand Jurkat T cells in 100 μl of medium were seeded in 96-well TC plates. […] After 80 hours of incubation, cellular DNA synthesis was assessed by a 16 hour ^3H-TdR pulse.

[6] = system: 10 CD30+ T lymphocyte clones; test: Summary of efficacies of cAC10 ADCs on proliferation of CD30+ T lymphocyte clones; assay type: cell-based, human; details: FIG. 23 summary
Description: The following trend was observed. […] These clones have been expanded through multiple rounds of T cell receptor and cytokine stimulation, similar to chronically stimulated effector T cells involved in inflammatory and autoimmune responses.

[7] = system: activated naïve T lymphocytes (CD45RO-); test: Proliferation of activated naïve T lymphocytes, 3H-TdR; assay type: cell-based, human; details: compared to memory T lymphocytes or T lymphocyte clones
Method: As PBMC are made up of different subsets of lymphocytes, the response of one cellular subset toward cAC10 ADCs may easily be masked by other subsets. In order to examine this possibility, total T lymphocytes, naïve and memory T lymphocytes were enriched from PBMC by negative immuno-selection. Briefly, PBMCs were incubated with one of the following antibody cocktails, containing saturating quantities of antibodies, at a final concentration of 20×10^6 cells/ml on ice for 20 minutes. To enrich for total T lymphocytes, the antibody cocktail contained anti-CD 14 (BD PharMingen), anti-CD16 (BD PharMingen), and anti-CD20 (BD PharMingen). To enrich for naïve T lymphocytes (CD45RO^−), the antibody cocktail contained anti-CD14, anti-CD16, anti-CD20, and anti-CD45RO (BD PharMingen). To enrich for memory T lymphocytes (CD45RA^−), the antibody cocktail contained, anti-CD14, anti-CD16, anti-CD20, and anti-CD45RA (BD PharMingen). […]
Activation-induced expression of CD30 on different T cell subsets was then examined. […] After 72 hours of incubation, the expression of CD30 on both CD4 and CDS cells in the different cultures was determined by flow cytometry, also as outlined in Example 6. Expression of CD30 was detected on both CD4 and CDS cells regardless of whether the starting population was total, naïve, or memory T lymphocytes (FIG. 12). […]

Chain of CD30 (human) (P28908 19-595): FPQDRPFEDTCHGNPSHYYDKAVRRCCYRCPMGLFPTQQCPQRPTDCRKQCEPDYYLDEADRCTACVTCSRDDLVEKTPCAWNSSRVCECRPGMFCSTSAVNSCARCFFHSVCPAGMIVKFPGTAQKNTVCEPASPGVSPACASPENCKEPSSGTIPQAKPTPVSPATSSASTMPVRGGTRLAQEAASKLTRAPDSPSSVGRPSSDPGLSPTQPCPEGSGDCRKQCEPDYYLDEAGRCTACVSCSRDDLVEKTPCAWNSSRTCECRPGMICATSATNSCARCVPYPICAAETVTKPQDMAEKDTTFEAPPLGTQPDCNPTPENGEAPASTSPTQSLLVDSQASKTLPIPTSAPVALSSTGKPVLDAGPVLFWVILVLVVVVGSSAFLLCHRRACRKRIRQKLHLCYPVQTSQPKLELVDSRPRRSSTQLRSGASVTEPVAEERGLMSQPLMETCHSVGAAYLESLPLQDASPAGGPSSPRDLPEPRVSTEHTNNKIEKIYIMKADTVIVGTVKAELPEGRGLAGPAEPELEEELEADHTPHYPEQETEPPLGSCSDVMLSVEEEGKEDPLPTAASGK

concentration giving the best synergy with AC10 for apoptosis in Jurkat T cells (CD3 (human)): 0.2 µg/mL
Molecule: anti-CD3 mAb OKT3 (antibody)

percent of cells apoptotic or dead (Annexin V / PI), clones 40E10 and 40H7, 48 h with 1 µg/ml ADC (control for cAC10-fkMMAE) (CD30 (human)): 13% and 31%
proliferation of activated Th2 clones 40E10 and 40H7 (3H-TdR); concentration needed for inhibition (control ADC) (CD30 (human)): > 0.1 µg/mL
Molecule: cIgG-fkMMAE (antibody)

Molecule: AC10: murine anti-CD30 mAb; variable regions SEQ ID NO:2 and 10
earliest time of detectable apoptosis after incubation (Jurkat T cells [1]): 4 h
inhibition of Jurkat T cell proliferation by immobilized mAb (Jurkat T cells [2]): active in inhibiting Jurkat T cell proliferation
inhibition of thymidine incorporation in Jurkat cells (Jurkat T cells [2]): inhibited thymidine incorporation in Jurkat cell dose-dependently
DNA fragmentation in Jurkat cells (Jurkat T cells [3]): detectable
apoptosis induction in Jurkat T cells (BrdU and PI staining) (Jurkat T cells [3]; single mAb cross-linked by goat anti-mouse IgG Fc, compared to medium control): induced apoptosis

Molecule: cAC10-fkMMAE: chimeric AC10 anti-CD30 antibody conjugated to MMAE via phenylalanine-lysine linker
cells either apoptotic or dead [4]: 44-48%

Jurkat T cell DNA synthesis (3H-TdR), 96 h exposure; concentration needed for growth inhibition (control ADC) (CD30 (human)): > 0.1 µg/mL
proliferation of activated Th2 clones 40E10 and 40H7 (3H-TdR); concentration needed for inhibition (control ADC) (CD30 (human)): > 2 µg/mL
Molecule: non-binding control IgG (cIgG)-vcMMAE (antibody)

Molecule: cAC10-vcMMAE: chimeric AC10 anti-CD30 antibody conjugated to MMAE via valine-citrulline linker
IC50 (Jurkat T cells [5]): approximately 0.1 μg/ml
concentrations that significantly inhibited DNA synthesis (Jurkat T cells [5]): higher than 0.001 μg/ml
sensitivity of T lymphocyte clones compared to memory T lymphocytes [6]: eight of the 10 T lymphocyte clones were found to be more sensitive
sensitivity of naïve T lymphocytes to the ADC [7]: relatively refractory; also recorded: most refractory

Molecule: cAC10: chimeric AC10 (cAC10) anti-CD30 mAb
concentration with growth inhibitory effect on Jurkat cells (Jurkat T cells [2]; soluble, unconjugated (FIG. 2)): higher than 1 μg/ml
concentrations at which Jurkat cell proliferation was not inhibited (Jurkat T cells [2]; without secondary cross-linking): below 1 μg/ml

Molecule: cAC10-vcAEFP: chimeric AC10 anti-CD30 antibody conjugated to AEFP via valine-citrulline linker
sensitivity of naïve T lymphocytes to the ADC [7]: less sensitive; also recorded: most refractory

B1: HeFi-1: murine anti-CD30 mAb; variable regions SEQ ID NO:18 and 26 (antibody, listed as Mus musculus, V domains shown)
VH: EVKLVESGGGLVQPGGSLRLSCATSGFTFSDYYMNWVRQPPGKALEWLGFIRNKANGYTTEFSASVMGRFTISRDDSQSILYLQMNTLRAEDSATYYCARDPPYGNPHYYAMDYWGQGTSVTVSS
VL: DIVLTQSPASLAVSLGQRATISCRASKSVSASGYNYMHWYQQKAGQPPKLLIHLASNLESGVPARFSGSGSGTDFTLNIHPVEEEDASTYYCQHSGELPFTFGSGTKLEIK
earliest time of detectable apoptosis after incubation (Jurkat T cells [1]): 4 h
inhibition of Jurkat T cell proliferation by immobilized mAb (Jurkat T cells [2]): active in inhibiting Jurkat T cell proliferation
inhibition of thymidine incorporation in Jurkat cells (Jurkat T cells [2]): inhibited thymidine incorporation in Jurkat cell dose-dependently
DNA fragmentation in Jurkat cells (Jurkat T cells [3]): detectable
